In ChEMBL document CHEMBL1201862, “PubChem BioAssay data set” (2004):
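Test compounds were applied to cells in 96-well plates for 48 hours at 5 doses. GI50: concentration for 50% inhibition of growth.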 Activity calls are given as the source filed them. Cut-off read from the data, not from the text of the source: active = GI50 up to about 1.1 µM and inactive = higher.

Columns and labels:
Assay in all cases: inhibition of tumour cell growth, NCI panel, 48 h
[1] = system: UACC-62
[2] = system: IGROV-1
[3] = system: ACHN
[4] = system: M14
[5] = system: K562
[6] = system: SN12C
[7] = system: A498
[8] = system: U-251
[9] = system: DMS-273
[10] = system: SF-539
[11] = system: HOP-62
[12] = system: HCT-116
[13] = system: SW-620
[14] = system: HCT-15
[15] = system: HL-60
[16] = system: HT-29
[17] = system: SNB-19
[18] = system: HOP-18
[19] = system: KM12
[20] = system: NCI-H23
[21] = system: UO-31
[22] = system: TK-10
[23] = system: SK-OV-3
[24] = system: CCRF-CEM
[25] = system: A549
[26] = system: SNB-78
[27] = system: HOP-92
[28] = system: M19-MEL
[29] = system: KM-20L2
[30] = system: OVCAR-4
[31] = system: DLD-1
[32] = system: SNB-75
[33] = system: MOLT-4
[34] = system: LOX IMVI
[35] = system: COLO 205
[36] = system: LXFL 529
[37] = system: RXF 393
[38] = system: SF-268
[39] = system: DMS-114
[40] = system: NCI-H460
[41] = system: RPMI-8226
[42] = system: NCI-H522
[43] = system: SK-MEL-5
[44] = system: SK-MEL-2
[45] = system: OVCAR-8
[46] = system: Malme-3M
[47] = system: OVCAR-3
[48] = system: RXF 631
[49] = system: UACC-257
[50] = system: 786-0
[51] = system: EKVX
[52] = system: SF-295
[53] = system: OVCAR-5
[54] = system: SK-MEL-28
[55] = system: HCC 2998

Compound: C#CCN(C)C(=O)N(CC#C)N=O
- GI50 [1]: > 100 µM (inactive)
- GI50 [2]: > 100 µM (inactive)
- GI50 [3]: > 100 µM (inactive)
- GI50 [4]: > 100 µM (inactive)
- GI50 [5]: > 100 µM (inactive)
- GI50 [6]: > 100 µM (inactive)
- GI50 [7]: > 100 µM (inactive)
- GI50 [8]: 54.2 µM (inactive)
- GI50 [9]: > 100 µM (inactive)
- GI50 [10]: > 100 µM (inactive)
- GI50 [11]: > 100 µM (inactive)
- GI50 [12]: > 100 µM (inactive)
- GI50 [13]: > 100 µM (inactive)
- GI50 [14]: > 100 µM
- GI50 [15]: > 100 µM (inactive)
- GI50 [16]: > 100 µM (inactive)
- GI50 [17]: > 100 µM (inactive)
- GI50 [18]: > 100 µM (inactive)
- GI50 [19]: > 100 µM (inactive)
- GI50 [20]: > 100 µM (inactive)
- GI50 [21]: > 100 µM (inactive)
- GI50 [22]: > 100 µM (inactive)
- GI50 [23]: > 100 µM (inactive)
- GI50 [24]: > 100 µM (inactive)
- GI50 [25]: > 100 µM (inactive)
- GI50 [26]: > 100 µM (inactive)
- GI50 [27]: > 100 µM (inactive)
- GI50 [28]: > 100 µM (inactive)
- GI50 [29]: > 100 µM (inactive)
- GI50 [30]: > 100 µM (inactive)
- GI50 [31]: > 100 µM (inactive)
- GI50 [32]: > 100 µM (inactive)
- GI50 [33]: > 100 µM (inactive)
- GI50 [34]: > 100 µM (inactive)
- GI50 [35]: > 100 µM (inactive)
- GI50 [36]: > 100 µM (inactive)
- GI50 [37]: > 100 µM (inactive)
- GI50 [38]: > 100 µM (inactive)
- GI50 [39]: > 100 µM (inactive)
- GI50 [40]: > 100 µM (inactive)
- GI50 [41]: > 100 µM (inactive)
- GI50 [42]: > 100 µM (inactive)
- GI50 [43]: > 100 µM (inactive)
- GI50 [44]: > 100 µM (inactive)
- GI50 [45]: > 100 µM (inactive)
- GI50 [46]: > 100 µM (inactive)
- GI50 [47]: > 100 µM (inactive)
- GI50 [48]: > 100 µM (inactive)
- GI50 [49]: > 100 µM (inactive)
- GI50 [50]: > 100 µM (inactive)
- GI50 [51]: > 100 µM (inactive)
- GI50 [52]: > 100 µM (inactive)
- GI50 [53]: 29.5 µM (inactive)
- GI50 [54]: > 100 µM (inactive)

Compound: CC12CC[C@@H](C(C)(C)O)C1[C@@H](O)CC1(C)C2CCC2[C@@]3(C)CC[C@H](O)C(C)(C)C3C(O)C[C@]21C (stereo partly drawn)
- GI50 [1]: 15.6 µM (inactive)
- GI50 [2]: 17.7 µM (inactive)
- GI50 [3]: 13.1 µM (inactive)
- GI50 [4]: 19.9 µM (inactive)
- GI50 [5]: 11.8 µM (inactive)
- GI50 [6]: 13.4 µM (inactive)
- GI50 [7]: 13.5 µM (inactive)
- GI50 [8]: 13.4 µM (inactive)
- GI50 [55]: 16.3 µM (inactive)
- GI50 [10]: 15.8 µM (inactive)
- GI50 [12]: 11.4 µM (inactive)
- GI50 [13]: 18 µM (inactive)
- GI50 [14]: 11.5 µM
- GI50 [15]: 5.27 µM (inactive)
- GI50 [16]: 12.6 µM (inactive)
- GI50 [17]: 21.1 µM (inactive)
- GI50 [18]: 24.6 µM (inactive)
- GI50 [19]: 14.6 µM (inactive)
- GI50 [20]: 16.1 µM (inactive)
- GI50 [21]: 21.6 µM (inactive)
- GI50 [22]: 16.4 µM (inactive)
- GI50 [24]: 11.3 µM (inactive)
- GI50 [25]: 11.5 µM (inactive)
- GI50 [26]: 14.6 µM (inactive)
- GI50 [27]: 17.4 µM (inactive)
- GI50 [28]: 24.3 µM (inactive)
- GI50 [29]: 10 µM (inactive)
- GI50 [30]: 13.1 µM (inactive)
- GI50 [31]: 19.8 µM (inactive)
- GI50 [33]: 4.07 µM (inactive)
- GI50 [35]: 15.6 µM (inactive)
- GI50 [36]: 14 µM (inactive)
- GI50 [37]: 6.85 µM (inactive)
- GI50 [38]: 14.9 µM (inactive)
- GI50 [39]: 13.6 µM (inactive)
- GI50 [40]: 15.3 µM (inactive)
- GI50 [41]: 21.3 µM (inactive)
- GI50 [43]: 4.07 µM (inactive)
- GI50 [44]: 18.7 µM (inactive)
- GI50 [45]: 16.5 µM (inactive)
- GI50 [46]: 13.8 µM (inactive)
- GI50 [47]: 16.8 µM (inactive)
- GI50 [48]: 18.5 µM (inactive)
- GI50 [49]: > 10 µM (inactive)
- GI50 [50]: 12.1 µM (inactive)
- GI50 [51]: 13.2 µM (inactive)
- GI50 [52]: 18.3 µM (inactive)
- GI50 [53]: 17.5 µM (inactive)
- GI50 [54]: 16.8 µM (inactive)
